One assay concerns human complement C9. Description: Microscale thermophoresis (MST) binding to human C9. The following applies: for binding to human C9: NT-647-labeled human C9 1.5 μM, peptides diluted from 1.68 to 0 mM, distilled water with 0.05% Tween 20, 10 min room temperature, three independent measurements. As to the method:
(§1) To assess the binding affinity of the peptides to human or mouse complement C9, a fluorescence-based biophysical technique known as MST (NanoTemper Technologies GmbH, Germany) was used. Briefly, human or mouse C9 was fluorescently labeled using a Monolith NT™ Protein Labeling Kit NT-647 (NanoTemper Technologies GmbH, Germany) based on the manufacturer's protocol. Next, the peptides were gradiently diluted in distilled water from 1.68 to 0 mM. The labeled human or mouse C9 (1.5 μM) was then incubated with various peptide concentrations for 10 min at room temperature before being loaded into K002 silica capillaries. Measurements were performed using a NanoTemper Monolith NT.115 instrument in distilled water containing 0.05% Tween 20. The data were analyzed using NanoTemper Analysis software (NanoTemper Technologies GmbH, Germany).
Figure 1 Modified peptide bound to human complement C9 and inhibited C9 polymerization-induced bio-function. (A) Microscale thermophoresis assay (NanoTemper) in which biomolecular interactions were quantitated by examining the motion of the molecules along a microscopic temperature gradient induced by an infrared laser. Changes in the molecular hydration shell, charge, or size are measured using a fluorescent probe (NT-647) bound covalently to the human C9. Binding of control, modified and original peptides to human C9 were studied. Data points indicate the differences in normalized fluorescence (%) generated by peptides binding to […], and curves indicate the calculated fits. […] Error bars represent the standard error of three independent measurements. […] Lane M: standard protein markers; lane 1: blank control (C9 without Zn^2+); lane 2: positive control (C9 with Zn^2+); lane 3: 5.24 μmol original peptide; lanes 4–6, 1.31, 2.62, and 5.24 μmol modified peptide, respectively; lane 7, 5.24 μmol control peptide. (C) Normal human serum (NHS)-induced complement-mediated hemolysis was inhibited by the modified and original peptides (2.62 and 5.24 μmol) compared to the control peptide. All experiments were performed three times and data are presented as mean ± SD. *p < 0.05, **p < 0.01.
A general note: MST reads how a fluorescent partner responds to local heating, with and without ligand.

The subject of another assay is recombinant mouse C9. Description: Microscale thermophoresis (MST) binding to recombinant mouse C9. The note with it: NT-647-labeled mouse C9 1.5 μM, peptides 1.68 to 0 mM, distilled water with 0.05% Tween 20, three independent measurements. As to the method: as §1
To evaluate whether the modified peptide can cross the species barrier to inhibit murine MAC assembly in addition to human MAC assembly and to provide a preliminary experimental basis for the in vivo mouse experiments, MST assays were used again to assess the binding ability of the peptides to recombinant mouse C9. […] To evaluate whether this binding can inhibit NMS-induced erythrocyte lysis (involving the alternative complement pathway), hemolytic assays were performed.
(A) Microscale thermophoresis assay (NanoTemper) in which biomolecular interactions are quantitated by examining the motion of the molecules along a microscopic temperature gradient induced by an infrared laser. Changes in the molecular hydration shell, charge, or size are measured using a fluorescent probe (NT-647) bound covalently to the mouse C9. Binding of control, modified and original peptides to mouse C9 were studied. […] Data points indicate the differences in normalized fluorescence (%) generated by peptides binding to mouse C9, and curves indicate the calculated fits. Error bars represent the standard error of three independent measurements. […] All experiments were performed three times and data are presented as mean ± SD. *p < 0.05, **p < 0.01.

The subject of assay [1] is complement in normal mouse serum (NMS); rabbit erythrocytes. The assay is described as follows: NMS-induced complement-mediated hemolysis of rabbit erythrocytes (alternative pathway). The assay is classed as cell-based. The following applies: for inhibition of NMS-induced erythrocyte lysis: NMS 1:12.5, peptide 1.31, 2.62, 5.24 μmol, Mg-EGTA, 37°C 40 min, then rabbit erythrocytes 1 × 10^8, 30 min 37°C, absorbance 412 nm; for inhibition of NMS-induced erythrocyte lysis / inhibition of NMS-induced hemolysis compared to control peptide: three experiments; for NMS-induced erythrocyte lysis at 5.24 μmol: peptide 5.24 μmol, NMS 1:12.5; for inhibition of NMS-induced hemolysis compared to control peptide: peptide 2.62 and 5.24 μmol, *p < 0.05, **p < 0.01. As to the method: Normal human serum (NHS) was collected from six healthy volunteers, and the donation procedure was approved by the Institutional Review Board (IRB) of Capital Medical University (approval number: 2016SY01). After venous blood was collected, it was clotted in serum separator tubes for 4 h at room temperature and then centrifuged at 1,000 g for 30 min to obtain the serum. The serum was divided into aliquots and stored at −80°C. To obtain normal mouse serum (NMS), blood was collected in the […] of mice under ether anesthesia and the serum was separated and stored as described above.
When rabbit erythrocytes are placed in xenogeneic serum (such as NHS or NMS), the alternative pathway of the complement system is activated, causing lysis of the rabbit erythrocytes. To evaluate the effects of the peptides on the complement activation-mediated erythrocyte lysis (involving the alternative complement pathway), NHS or NMS (1:12.5) was incubated with various concentrations of peptides (1.31, 2.62, and 5.24 μmol) in Mg-EGTA solution (5 mM MgCl2, 10 mM EGTA) at 37°C for 40 min before adding the mixture to freshly washed erythrocytes (1 × 10^8) in gelatin veronal-buffered saline (pH 7.4, containing 0.1% gelatin) for 30 min at 37°C. Lysis was stopped with cold Hanks' Balanced Salt Solution (HBSS^++) containing 10 mM ethylenediaminetetraacetic acid (EDTA). The samples were then centrifuged at 1,000 g for 10 min to obtain the supernatant, and the amount of released hemoglobin in the supernatant was determined by measuring the absorbance at 412 nm. The hemolytic activity relative to the water-induced lysis among the same number of erythrocytes was calculated.
Figure 2 Modified peptide bound to mouse complement C9 and inhibited normal mouse serum (NMS)-induced hemolysis of rabbit erythrocytes. (A) Microscale thermophoresis assay (NanoTemper) in which biomolecular interactions are quantitated by examining the motion of the molecules along a microscopic temperature gradient induced by an infrared laser. Changes in the molecular hydration shell, charge, or size are measured using a fluorescent probe (NT-647) bound covalently to the mouse C9. Binding of control, modified and original peptides to mouse C9 were studied. […] Data points indicate the differences in normalized fluorescence (%) generated by peptides binding to mouse C9, and curves indicate the calculated fits. Error bars represent the standard error of three independent measurements. (B) NMS-induced complement-mediated hemolysis was inhibited by the modified and original peptides (2.62 and 5.24 μmol) compared to the control peptide. All experiments were performed three times and data are presented as mean ± SD. *p < 0.05, **p < 0.01.

Entries after “also recorded” stand apart in the source; their conditions may differ.

As to “GKMSVMSVYKSVLS [control peptide, reference compound]”, the “binding to human C9” value with human complement C9 is “no binding between human C9 and the control peptide”. For the same substance, the “binding to recombinant mouse C9” value in the assay on recombinant mouse C9 is “could not”. In assay [1], the “inhibition of NMS-induced erythrocyte lysis” value is on record as “no inhibitory effect”.
Take “Myr-GSSKSPSKKKKKKPG-ACP-VSMGKSLSSKVYVM [modified peptide, Ts-pmy-derived peptide modified with a membrane-targeting signal]”: the “binding to human C9” value in the assay with human complement C9 is “human C9 could bind to both the original and modified peptides; also recorded: concentration-dependent binding”. Also, the “binding affinity to human C9 compared with original peptide” value in the assay with human complement C9 (labeled human C9 1.5 μM, peptides 1.68 to 0 mM, Kd not given) is on record as “binding affinity that was similar to that of the original peptide”. For the same substance, the “binding to recombinant mouse C9” value with recombinant mouse C9 was “could bind to the recombinant mouse C9; also recorded: concentration-dependent binding”. For the same substance, in assay [1], the “inhibition of NMS-induced erythrocyte lysis” value is “inhibited in a dose-dependent manner”; the “NMS-induced erythrocyte lysis at 5.24 μmol” value was “reduced, to a similar level to the NHS-induced erythrocyte lysis”; the “inhibition of NMS-induced hemolysis compared to control peptide” value is on record as “inhibited”.
For the substance “VSMGKSLSSKVYVM [original peptide, tetradecapeptide derived from Trichinella spiralis paramyosin (Ts-pmy)]”, in the assay with human complement C9, the “binding to human C9” value is “human C9 could bind to both the original and modified peptides; also recorded: concentration-dependent binding”. Besides, the “binding to recombinant mouse C9” value with recombinant mouse C9 is recorded as “could bind to the recombinant mouse C9; also recorded: concentration-dependent binding”. Moreover, in assay [1], the “inhibition of NMS-induced erythrocyte lysis” value is reported as “inhibited in a dose-dependent manner”; the “NMS-induced erythrocyte lysis at 5.24 μmol” value is reported as “reduced, to a similar level to the NHS-induced erythrocyte lysis”; the “inhibition of NMS-induced hemolysis compared to control peptide” value is given as “inhibited”.

The values above are taken from paper PMC7785802, “Therapeutic Efficacy of a Trichinella Spiralis Paramyosin-Derived Peptide Modified With a Membrane-Targeting Signal in Mice With Antigen-Induced Arthritis” (Frontiers in Microbiology, 2020).
